| melting point [°C] | Compound |
| --- | --- |
| 108 to 115 | Cc1cc(C(=O)Nc2nc(-c3ccco3)c(C(=O)C3CCC(=O)CC3)s2)ccn1 [Compound 449, N-[4-(2-Furyl)-5-(4-oxocyclohexylcarbonyl)thiazol-2-yl]-2-methylpyridine-4-carboxamide] |
| 232 to 235 | O=C1CCC(C(=O)c2sc(NC(=O)c3ccco3)nc2-c2ccco2)CC1 [Compound 450, N-[4-(2-Furyl)-5-(4-oxocyclohexylcarbonyl)thiazol-2-yl]furan-2-carboxamide] |
| 176 to 183 | COc1cccc(C(=O)Nc2nc(-c3ccco3)c(C(=O)C3CCC(=O)CC3)s2)c1 [Compound 451, N-[4-(2-Furyl)-5-(4-oxocyclohexylcarbonyl)thiazol-2-yl]-3-methoxybenzamide] |
| 211 to 212 | N#Cc1ccc(C(=O)Nc2nc(-c3ccco3)c(C(=O)C3CCC(=O)CC3)s2)cc1 [Compound 452, 4-Cyano-N-[4-(2-furyl)-5-(4-oxocyclohexylcarbonyl)thiazol-2-yl]benzamide] |
| 221 to 222 | O=C(Nc1nc(-c2ccco2)c(C(=O)C2CCOCC2)s1)c1ccccc1 [Compound 457, N-[4-(2-Furyl)-5-(tetrahydropyran-4-ylcarbonyl)thiazol-2-yl]benzamide] |
| 204 to 206 | Cc1ccccc1C(=O)Nc1nc(-c2ccco2)c(C(=O)C2CCOCC2)s1 [Compound 458, N-[4-(2-Furyl)-5-(tetrahydropyran-4-ylcarbonyl)thiazol-2-yl]-2-methylbenzamide] |
| 197 to 201 | Cc1cccc(C(=O)Nc2nc(-c3ccco3)c(C(=O)C3CCOCC3)s2)c1 [Compound 459, N-[4-(2-Furyl)-5-(tetrahydropyran-4-ylcarbonyl)thiazol-2-yl]-3-methylbenzamide] |
| 190 to 192 | Cc1ccc(C(=O)Nc2nc(-c3ccco3)c(C(=O)C3CCOCC3)s2)cc1 [Compound 460, N-[4-(2-Furyl)-5-(tetrahydropyran-4-ylcarbonyl)thiazol-2-yl]-4-methylbenzamide] |
| 181 to 184 | COc1ccccc1C(=O)Nc1nc(-c2ccco2)c(C(=O)C2CCOCC2)s1 [Compound 461, N-[4-(2-Furyl)-5-(tetrahydropyran-4-ylcarbonyl)thiazol-2-yl]-2-methoxybenzamide] |
| 184 to 188 | COc1ccc(C(=O)Nc2nc(-c3ccco3)c(C(=O)C3CCOCC3)s2)cc1 [Compound 463, N-[4-(2-Furyl)-5-(tetrahydropyran-4-ylcarbonyl)thiazol-2-yl]-4-methoxybenzamide] |
| 239 to 243 | CN(C)c1cccc(C(=O)Nc2nc(-c3ccco3)c(C(=O)C3CCOCC3)s2)c1 [Compound 464, 3-(Dimethylamino)-N-[4-(2-furyl)-5-(tetrahydropyran-4-ylcarbonyl)thiazol-2-yl]benzamide] |
| 238 to 240 | CN(C)c1ccc(C(=O)Nc2nc(-c3ccco3)c(C(=O)C3CCOCC3)s2)cc1 [Compound 465, 4-(Dimethylamino)-N-[4-(2-furyl)-5-(tetrahydropyran-4-ylcarbonyl)thiazol-2-yl]benzamide] |
| 172 to 176 | O=C(Nc1nc(-c2ccco2)c(C(=O)C2CCOCC2)s1)c1ccccc1F [Compound 466, 2-Fluoro-N-[4-(2-furyl)-5-(tetrahydropyran-4-ylcarbonyl)thiazol-2-yl]benzamide] |
| 229 to 231 | O=C(Nc1nc(-c2ccco2)c(C(=O)C2CCOCC2)s1)c1cccc(F)c1 [Compound 467, 3-Fluoro-N-[4-(2-furyl)-5-(tetrahydropyran-4-ylcarbonyl)thiazol-2-yl]benzamide] |
| 160 to 162 | O=C(Nc1nc(-c2ccco2)c(C(=O)C2CCOCC2)s1)c1ccccc1Cl [Compound 469, 2-Chloro-N-[4-(2-furyl)-5-(tetrahydropyran-4-ylcarbonyl)thiazol-2-yl]benzamide] |
| 210 to 212 | O=C(Nc1nc(-c2ccco2)c(C(=O)C2CCOCC2)s1)c1cccc(Cl)c1 [Compound 470, 3-Chloro-N-[4-(2-furyl)-5-(tetrahydropyran-4-ylcarbonyl)thiazol-2-yl]benzamide] |
| 204 to 206 | O=C(Nc1nc(-c2ccco2)c(C(=O)C2CCOCC2)s1)c1ccc(Cl)cc1 [Compound 471, 4-Chloro-N-[4-(2-furyl)-5-(tetrahydropyran-4-ylcarbonyl)thiazol-2-yl]benzamide] |
| 221 to 224 | N#Cc1ccccc1C(=O)Nc1nc(-c2ccco2)c(C(=O)C2CCOCC2)s1 [Compound 472, 2-Cyano-N-[4-(2-furyl)-5-(tetrahydropyran-4-ylcarbonyl)thiazol-2-yl]benzamide] |
| 257 to 260 | N#Cc1cccc(C(=O)Nc2nc(-c3ccco3)c(C(=O)C3CCOCC3)s2)c1 [Compound 473, 3-Cyano-N-[4-(2-furyl)-5-(tetrahydropyran-4-ylcarbonyl)thiazol-2-yl]benzamide] |
| 231 to 234 | N#Cc1ccc(C(=O)Nc2nc(-c3ccco3)c(C(=O)C3CCOCC3)s2)cc1 [Compound 474, 4-Cyano-N-[4-(2-furyl)-5-(tetrahydropyran-4-ylcarbonyl)thiazol-2-yl]benzamide] |

| melting point [°C] | Compound |
| --- | --- |
| 131 to 134 | O=C(Nc1nc(-c2ccco2)c(C(=O)C2CCOCC2)s1)c1ccccc1OC(F)(F)F [Compound 475, N-[4-(2-Furyl)-5-(tetrahydropyran-4-ylcarbonyl)thiazol-2-yl]-2-(trifluoromethoxy)benzamide] |
| 197 to 198 | O=C(Nc1nc(-c2ccco2)c(C(=O)C2CCOCC2)s1)c1cccc(OC(F)(F)F)c1 [Compound 476, N-[4-(2-Furyl)-5-(tetrahydropyran-4-ylcarbonyl)thiazol-2-yl]-3-(trifluoromethoxy)benzamide] |
| 177 to 180 | O=C(Nc1nc(-c2ccco2)c(C(=O)C2CCOCC2)s1)c1ccc(OC(F)(F)F)cc1 [Compound 477, N-[4-(2-Furyl)-5-(tetrahydropyran-4-ylcarbonyl)thiazol-2-yl]-4-(trifluoromethoxy)benzamide] |
| 109 to 112 | CN(C)Cc1ccc(C(=O)Nc2nc(-c3ccco3)c(C(=O)C3CCOCC3)s2)cc1 [Compound 479, 4-(Dimethylaminomethyl)-N-[4-(2-furyl)-5-(tetrahydropyran-4-ylcarbonyl)thiazol-2-yl]benzamide] |
| 160 to 162 | O=C(Nc1nc(-c2ccco2)c(C(=O)C2CCOCC2)s1)c1ccc(CN2CCCCC2)cc1 [Compound 480, N-[4-(2-Furyl)-5-(tetrahydropyran-4-ylcarbonyl)thiazol-2-yl]-4-(piperidinomethyl)benzamide] |
| 194 to 195 | O=C(Nc1nc(-c2ccco2)c(C(=O)C2CCOCC2)s1)c1ccc(CN2CCC(O)CC2)cc1 [Compound 481, N-[4-(2-Furyl)-5-(tetrahydropyran-4-ylcarbonyl)thiazol-2-yl]-4-(4-hydroxypiperidinomethyl)benzamide] |
| 92 to 96 | O=C(Nc1nc(-c2ccco2)c(C(=O)C2CCOCC2)s1)c1ccc(CN2CCOCC2)cc1 [Compound 482, N-[4-(2-Furyl)-5-(tetrahydropyran-4-ylcarbonyl)thiazol-2-yl]-4-(morpholinomethyl)benzamide] |
| 198 to 200 | COc1cccc(C(=O)Nc2nc(-c3ccco3)c(C(=O)C3CCOCC3)s2)c1OC [Compound 483, N-[4-(2-Furyl)-5-(tetrahydropyran-4-ylcarbonyl)thiazol-2-yl]-2,3-dimethoxybenzamide] |
| 219 to 222 | COc1ccc(C(=O)Nc2nc(-c3ccco3)c(C(=O)C3CCOCC3)s2)c(OC)c1 [Compound 484, N-[4-(2-Furyl)-5-(tetrahydropyran-4-ylcarbonyl)thiazol-2-yl]-2,4-dimethoxybenzamide] |
| 107 to 110 | COc1ccc(OC)c(C(=O)Nc2nc(-c3ccco3)c(C(=O)C3CCOCC3)s2)c1 [Compound 485, N-[4-(2-Furyl)-5-(tetrahydropyran-4-ylcarbonyl)thiazol-2-yl]-2,5-dimethoxybenzamide] |
| 152 to 156 | COc1cccc(OC)c1C(=O)Nc1nc(-c2ccco2)c(C(=O)C2CCOCC2)s1 [Compound 486, N-[4-(2-Furyl)-5-(tetrahydropyran-4-ylcarbonyl)thiazol-2-yl]-2,6-dimethoxybenzamide] |
| 289 to 292 | COc1ccc(C(=O)Nc2nc(-c3ccco3)c(C(=O)C3CCOCC3)s2)cc1OC [Compound 487, N-[4-(2-Furyl)-5-(tetrahydropyran-4-ylcarbonyl)thiazol-2-yl]-3,4-dimethoxybenzamide] |
| 278 to 280 | COc1cc(OC)cc(C(=O)Nc2nc(-c3ccco3)c(C(=O)C3CCOCC3)s2)c1 [Compound 488, N-[4-(2-Furyl)-5-(tetrahydropyran-4-ylcarbonyl)thiazol-2-yl]-3,5-dimethoxybenzamide] |
| 154 to 160 | O=C(Nc1nc(-c2ccco2)c(C(=O)C2CCOCC2)s1)c1cccc(F)c1F [Compound 489, 2,3-Difluoro-N-[4-(2-furyl)-5-(tetrahydropyran-4-ylcarbonyl)thiazol-2-yl]benzamide] |
| 213 to 215 | O=C(Nc1nc(-c2ccco2)c(C(=O)C2CCOCC2)s1)c1ccc(F)cc1F [Compound 490, 2,4-Difluoro-N-[4-(2-furyl)-5-(tetrahydropyran-4-ylcarbonyl)thiazol-2-yl]benzamide] |
| 172 to 174 | O=C(Nc1nc(-c2ccco2)c(C(=O)C2CCOCC2)s1)c1cc(F)ccc1F [Compound 491, 2,5-Difluoro-N-[4-(2-furyl)-5-(tetrahydropyran-4-ylcarbonyl)thiazol-2-yl]benzamide] |
| 168 to 170 | O=C(Nc1nc(-c2ccco2)c(C(=O)C2CCOCC2)s1)c1c(F)cccc1F [Compound 492, 2,6-Difluoro-N-[4-(2-furyl)-5-(tetrahydropyran-4-ylcarbonyl)thiazol-2-yl]benzamide] |
| 208 to 210 | O=C(Nc1nc(-c2ccco2)c(C(=O)C2CCOCC2)s1)c1ccc(F)c(F)c1 [Compound 493, 3,4-Difluoro-N-[4-(2-furyl)-5-(tetrahydropyran-4-ylcarbonyl)thiazol-2-yl]benzamide] |
| 259 to 265 | O=C(Nc1nc(-c2ccco2)c(C(=O)C2CCOCC2)s1)c1cc(F)cc(F)c1 [Compound 494, 3,5-Difluoro-N-[4-(2-furyl)-5-(tetrahydropyran-4-ylcarbonyl)thiazol-2-yl]benzamide] |
